The values that follow come from patent US10030016B2 (Sunesis Pharmaceuticals, Inc., priority 2009, dated 2018).

For test [1], the target named is PDK1 (Homo sapiens (Human), UniProt O15530). The test is described as follows: PDK1 kinase assay (coupled PDK1/AKT/FAM-crosstide assay, IMAP fluorescence polarization). In kind it is biochemical. In outline: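 Coupled cascade: 0.75 nM PDK1 (51-359) → 10 nM AKT2 (140-467-PIFtide) → 100 nM FAM-crosstide. ATP 40 μM, 25° C, 30 min. IMAP FP (ex 485/em 530), 2 h binding. ΔmP vs conc, 4-param fit.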

Test [2] has as its system phospho-akt (Thr308) in PC-3 cells. The test is described as follows: Inhibition of phospho-akt (Thr308) in PC-3 cells, MSD phospho-akt 308 ELISA kit. The class given is cell-based. The following applies: Homo sapiens, 2 hours, no serum, read-out: EC50. In outline:
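PC-3 cells were seeded overnight in growth medium with 10% FBS, then exposed to compound serially diluted threefold in serum-free medium for 2 hours. Lysates were captured overnight at 4 degrees on MSD plates and phospho-Akt Thr308 was detected electrochemiluminescently, against DMSO high and 5 μM wortmannin low controls.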

Setting [3] is: inhibition of P308 Akt in PC-3 cells using MSD.
Where [4] appears, read: inhibition of phospo-PDK1 in vitro.
Setting [5] is: inhibition of P308 Akt in PC-3 cells, MSD.
The mark [6] stands for this setting: PC-3, 2 h, inhibition of P308 Akt in PC-3 cells using MSD.

For orientation: IC50 means the point on the concentration scale where inhibition reaches its midpoint. Read a high IC50 as weaker potency in that assay. The EC50 is the concentration giving half of the maximal effect.

Each structure is given as a SMILES string. Structures can show the parent of a compound that is named as a salt. Where two headings read alike, the source gives them in different places.

Sequence of PDK1 (O15530 51-359): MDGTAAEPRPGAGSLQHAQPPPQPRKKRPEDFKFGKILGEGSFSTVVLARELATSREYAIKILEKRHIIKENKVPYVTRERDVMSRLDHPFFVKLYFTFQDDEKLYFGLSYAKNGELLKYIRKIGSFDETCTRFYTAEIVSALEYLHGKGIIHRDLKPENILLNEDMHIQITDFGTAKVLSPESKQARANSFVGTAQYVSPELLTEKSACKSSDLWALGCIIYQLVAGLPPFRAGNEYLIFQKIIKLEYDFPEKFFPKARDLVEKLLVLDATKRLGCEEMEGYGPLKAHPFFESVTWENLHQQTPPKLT

Consider `CNc1ncc2cc(OCCNc3ncc(C#N)cc3C(=O)N[C@@H](C)c3ccc(F)cc3)ccc2n1` [Example 250, (S)-5-cyano-N-(1-(4-fluorophenyl)ethyl)-2-(2-(2-(methylamino)quinazolin-6-yloxy)ethylamino)nicotinamide], for which, in test [1] (inhibition of PDK1 in vitro), the IC50 was < 100 nM. Further, in test [2] (setting [3]), the 50% effective concentration (EC50) is < 1000 nM.

In the case of `C[C@H](NC(=O)c1cccnc1N[C@@H](COc1ccc([N+](=O)[O-])c(N)c1)c1cccc(Cl)c1)c1ccc(F)c(F)c1` [Example 16.7, 2-((R)-2-(3-amino-4-nitrophenoxy)-1-(3-chlorophenyl)ethylamino)-N-((S)-1-(3,4-difluorophenyl)ethyl)nicotinamide], the IC50 in test [1] (setting [4]) is > 5000 nM. Moreover, in test [2] (setting [5]), the EC50 was > 10000 nM.

With `CC(C)n1cc(-c2ccc(CNc3ncc(C(F)(F)F)cc3C(=O)Nc3ccc(F)cc3)cc2)c2c(N)ncnc21` [Example 442, 2-(4-(4-amino-7-isopropyl-7H-pyrrolo[2,3-d]pyrimidin-5-yl)benzylamino)-N-(4-fluorophenyl)-5-(trifluoromethyl)nicotinamide], in test [1] (setting [4]), the IC50 was < 100 nM. The EC50 in test [2] (setting [3]) is < 1000 nM.

`C[C@H](NC(=O)c1cc(C(F)(F)F)cnc1NCc1ccc(-c2cc3c(N)ncnc3cn2)s1)c1ccc(F)c(F)c1` [Example 8.12.8, 2-({[5-(4-aminopyrido [3,4-d]pyrimidin-6-yl)thiophen-2-yl]methyl}amino)-N-[(1S)-1-(3,4-difluorophenyl)ethyl]-5-(trifluoromethyl) pyridine-3-carboxamide] displayed an IC50 in test [1] (setting [4]) of 100 to 1000 nM. In addition, the EC50 in test [2] (setting [5]) lay within 1000 to 10000 nM.

On to `Nc1ncnc2ccc(-c3ccc(CNc4ncccc4C(=O)NCc4cccc(F)c4F)s3)cc12` [Example 3.10, 2-({[5-(4-aminoquinazolin-6-yl)thiophen-2-yl]methyl}amino)-N-(2,3-difluorobenzyl)pyridine-3-carboxamide (TFA salt)], for which, in test [1] (setting [4]), the IC50 fell in the range of 100 to 1000 nM. Also, the EC50 in test [2] (setting [5]) fell in the range of 1000 to 10000 nM.

For the compound `C[C@H](NC(=O)c1cccnc1NCc1ccc(-c2ccc3ncc(-n4cccn4)nc3c2)s1)c1ccc(F)c(F)c1` [Example 4.26, (S)-2-(((5-(3-(1H-pyrazol-1-yl)quinoxalin-6-yl)thiophen-2-yl)methyl)amino)-N-(1-(3,4-difluorophenyl)ethyl)nicotinamide], the IC50 in test [1] (setting [4]) was > 5000 nM. Also, the EC50 in test [2] (setting [5]) is > 10000 nM.

Consider `O=C(NCc1ccc(F)c(F)c1)c1cc(C(F)(F)F)cnc1NCc1ccc(-c2cnc3[nH]ncc3c2)cc1` [Example 2.37], for which, in test [1] (setting [4]), the IC50 was < 100 nM. The EC50 in test [2] (setting [5]) was < 1000 nM.

Turning to `C[C@H](NC(=O)c1cc(C#N)cnc1NCc1ccc(-c2cnc(N)c(C(=O)NCC(O)CO)c2)cc1)c1ccc(F)cc1` (stereo partly shown) [Example 206], the IC50 in test [1] (inhibition of PDK1 in vitro) was < 100 nM. For the same compound, the EC50 in test [2] (setting [3]) lay in the range of 1000 to 10000 nM.

As for `C[C@H](NC(=O)c1cc(C#N)cnc1NCc1ccc(-c2cnc(N)c(C#N)c2)cc1)c1ccc(F)cc1` [Example 115, (S)-2-(4-(6-amino-5-cyanopyridin-3-yl)benzylamino)-5-cyano-N-(1-(4-fluorophenyl)ethyl) nicotinamide], in test [1] (inhibition of PDK1 in vitro), the IC50 is < 100 nM. In test [2] (setting [3]), the EC50 was > 10000 nM.

`Nc1ncnc2ccc(-c3ccc(CNc4nc5c(cc4C(=O)NCc4ccc(F)c(F)c4)CCC5)s3)cc12` [Ex. 8.15.1, 2-({[5-(4-aminoquinazolin-6-yl)thiophen-2-yl]methyl}amino)-N-(3,4-difluorobenzyl)-6,7-dihydro-5H-cyclopenta [b]pyridine-3-carboxamide] returned an IC50 in test [1] (setting [4]) of 100 to 1000 nM. Also, the EC50 in test [2] (setting [5]) lay in the range of 1000 to 10000 nM.

Take `CNc1ncc2cc(O[C@H](C)CNc3ncc(C#N)nc3C(=O)N[C@@H](C)c3ccc(F)c(F)c3)ccc2n1` [Example 252, 6-cyano-N-((S)-1-(3,4-difluorophenyl)ethyl)-3-((R)-2-(2-(methylamino)quinazolin-6-yloxy)propylamino)pyrazine-2-carboxamide]: the IC50 in test [1] (inhibition of PDK1 in vitro) is 100 to 1000 nM. Moreover, the concentration for a half-maximal effect (EC50) in test [2] (setting [6]) is 1000 to 10000 nM.

Turning to `CC(C)Oc1cc(CNc2ncccc2C(=O)NCc2ccc(F)c(F)c2)cc(-c2ccc3ncncc3c2)c1` [Example 5.3, N-(3,4-difluorobenzyl)-2-(3-isopropoxy-5-(quinazolin-6-yl)benzylamino) nicotinamide], the IC50 in test [1] (setting [4]) was in the range of 100 to 1000 nM. Further, the EC50 in test [2] (setting [5]) is > 10000 nM.

As to `CNc1ncc2cc(O[C@@H](C)CNc3ncc(C#N)nc3C(=O)N[C@@H](C)c3ccc(F)c(F)c3)ccc2n1` [Example 254, 6-cyano-N-((S)-1-(3,4-difluorophenyl)ethyl)-3-((S)-2-(2-(methylamino)quinazolin-6-yloxy)propylamino)pyrazine-2-carboxamide], the IC50 in test [1] (inhibition of PDK1 in vitro) was in the range of 100 to 1000 nM. Also, the EC50 in test [2] (setting [6]) is 1000 to 10000 nM.

Turning to `O=C(NCc1ccc(F)c(F)c1)c1cccnc1NCc1csc(-c2ccc3ncnc(NC4CC4)c3c2)n1` [Ex. 6.9, 2-[({2-[4-(cyclopropyl-amino)quinazolin-6-yl)-1,3-thiazol-4-yl}methyl)amino]-N-(3,4-difluorobenzyl) pyridine-3-carboxamide], the IC50 in test [1] (setting [4]) is < 100 nM. For the same compound, in test [2] (setting [5]), the EC50 is > 10000 nM.

For `N#Cc1cnc(NCc2ccc(-c3cnc(N)cn3)cc2)c(C(=O)NCc2ccc(F)cc2)c1` [Example 378, 2-(4-(5-aminopyrazin-2-yl)benzylamino)-5-cyano-N-(4-fluorobenzyl) nicotinamide], in test [1] (inhibition of PDK1 in vitro), the IC50 is < 100 nM. Further, the EC50 in test [2] (setting [3]) lay within 1000 to 10000 nM.

Take `Cc1ccc(CNC(=O)c2cccnc2NCc2ccc(-c3ccc4ncnc(N)c4c3)s2)o1` [Example 3.17, 2-({[5-(4-aminoquinazolin-6-yl)thiophen-2-yl]methyl}amino)-N-[(5-methylfuran-2-yl)methyl] pyridine-3-carboxamide (TFA salt)]: the IC50 in test [1] (setting [4]) was 100 to 1000 nM. The EC50 in test [2] (PC-3, 2 h, inhibition of P308 Akt in PC-3 cells, MSD) is > 10000 nM.

For `N#Cc1cnc(NCc2ccc(-c3ccc(N)nc3)cc2)c(C(=O)NCc2ccc(F)c(F)c2)n1` [Example 372, 3-(4-(6-aminopyridin-3-yl)benzylamino)-6-cyano-N-(3,4-difluorobenzyl)pyrazine-2-carboxamide], the IC50 in test [1] (inhibition of PDK1 in vitro) is < 100 nM. In addition, the EC50 in test [2] (setting [3]) was 1000 to 10000 nM.

`O=C(NCc1ccc(F)c(F)c1)c1cccnc1NCc1ccc(-c2ccc3ncnc(N4CCC4)c3c2)s1` [Example 4.9, 2-(((5-(4-(azetidin-1-yl)quinazolin-6-yl)thiophen-2-yl)methyl)amino)-N-(3,4-difluorobenzyl)nicotinamide]: the IC50 in test [1] (setting [4]) was < 100 nM. The EC50 in test [2] (setting [5]) lay within 1000 to 10000 nM.

Turning to `C[C@H](NC(=O)c1cc(C#N)cnc1NCc1ccc(-c2cnc(N)c(N3CCC[C@H](N)C3)n2)cc1)c1ccc(F)cc1` [Example 197], the IC50 in test [1] (inhibition of PDK1 in vitro) is < 100 nM. Moreover, in test [2] (setting [3]), the EC50 is < 1000 nM.

Regarding `N#Cc1ccc(NC(=O)c2nc(C#N)cnc2NCc2ccc(-c3cnc4[nH]nc(N)c4c3)cc2)cc1` [Example 425, 3-(4-(3-amino-1H-pyrazolo[3,4-b]pyridin-5-yl)benzylamino)-6-cyano-N-(4-cyanophenyl) pyrazine-2-carboxamide], the IC50 in test [1] (inhibition of PDK1 in vitro) was < 100 nM. Moreover, the EC50 in test [2] (setting [3]) is < 1000 nM.

As for `C[C@H](NC(=O)c1cc(C#N)cnc1NCc1ccc(-c2cnc3[nH]c(=O)[nH]c3c2)cc1)c1ccc(F)cc1` [Example 116, (S)-5-cyano-N-(1-(4-fluorophenyl)ethyl)-2-(4-(2-oxo-2,3-dihydro-1H-imidazo[4,5-b]pyridin-6-yl)benzyl-amino)nicotinamide], the IC50 in test [1] (inhibition of PDK1 in vitro) is < 100 nM. The concentration for a half-maximal effect (EC50) in test [2] (setting [3]) was < 1000 nM.

In turn, `Nc1ncnc2ccc(-c3ccc(CNc4ncc(S(=O)(=O)NCc5ccccc5)cc4C(=O)NCc4ccc(F)c(F)c4)s3)cc12` [Example 8.6.7, 2-(((5-(4-aminoquinazolin-6-yl)thiophen-2-yl)methyl)amino)-5-(N-benzylsulfamoyl)-N-(3,4-difluorobenzyl) nicotinamide] showed an IC50 in test [1] (setting [4]) of 100 to 1000 nM. Besides, the EC50 in test [2] (setting [5]) is > 10000 nM.

`C[C@H](NC(=O)c1cc(F)cnc1NCc1ccc(-c2ccc3ncnc(N)c3c2)s1)c1ccc(F)cc1` [Example 7.3.2, (S)-2-(((5-(4-aminoquinazolin-6-yl)thiophen-2-yl)methyl)amino)-5-fluoro-N-(1-(4-fluorophenyl)ethyl) nicotinamide]: the half-inhibitory concentration (IC50) in test [1] (setting [4]) is < 100 nM. Further, the EC50 in test [2] (setting [5]) is < 1000 nM.

Turning to `Nc1ncnc2ccc(-c3ccc(CNc4ncccc4C(=O)NCc4cc(F)c(F)c(F)c4)s3)cc12` [Example 3.23, 2-({[5-(4-aminoquinazolin-6-yl)thiophen-2-yl]methyl}amino)-N-(3,4,5-trifluorobenzyl)pyridine-3-carboxamide (TFA salt)], the IC50 in test [1] (setting [4]) is < 100 nM. Besides, the EC50 in test [2] (setting [5]) was < 1000 nM.

Turning to `C[C@H](NC(=O)c1cc(C#N)cnc1NCc1ccc(-c2n[nH]c3ncnc(N)c23)cc1)c1ccc(F)cc1` [Example 96, 2-[4-(4-Amino-1H-pyrazolo [3,4-d]pyrimidin-3-yl)-benzylamino]-5-cyano-N-[(S)-1-(4-fluoro-phenyl)-ethyl]-nicotinamide], in test [1] (inhibition of PDK1 in vitro), the IC50 is < 100 nM. Also, the EC50 in test [2] (setting [3]) was in the range of 1000 to 10000 nM.

Take `CCCc1n[nH]c2ncc(-c3ccc(CNc4ncc(C#N)cc4C(=O)N[C@@H](C)c4ccc(F)cc4)cc3)cc12` [Example 147, (S)-5-cyano-N-(1-(4-fluorophenyl)ethyl)-2-(4-(3-propyl-1H-pyrazolo[3,4-b]pyridin-5-yl)benzyl-amino)nicotinamide]: in test [1] (inhibition of PDK1 in vitro), the IC50 was < 100 nM. The EC50 in test [2] (setting [3]) lay in the range of 1000 to 10000 nM.
